Measurements as given in patent publication US20150353495A1 (PORTOLA PHARMACEUTICALS, INC., priority 2010, published 2015).

Key:
[1] = system: JAK1/3 signaling to STAT6 in Ramos B cells; assay: IL4 stimulation of JAK1/3 signaling to STAT6 in Ramos B cells (pSTAT6 Y641, FACS); type: cell-based; conditions: Homo sapiens; for inhibition at 0.2 µM: 0.2 uM compound, read-out: IL-4/STAT6 in Ramos Percent Inhibition at 0.2 uM; for inhibition at 1 µM: 1.0 uM compound, read-out: IL-4/STAT6 in Ramos Percent Inhibition at 1.0 uM
Procedure, shortened: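 Ramos cells in 10% FCS medium were pre-treated 1 h with compound, stimulated 15 min with 15 ng IL4, fixed in 2% paraformaldehyde and methanol-permeabilized. Intracellular phospho-STAT6 Y641 was stained with PE-conjugated antibody and quantified by flow cytometry.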

JAK1 = biological target: T1, JAK1 (Homo sapiens, UniProt P23458); assay: Z'-LYTE kinase assay JAK1; type: biochemical
T1 construct: 5 μl of catalytic domain recombinant Kinase enzyme+Tyr peptide substrate (Invitrogen, CA); purchased Invitrogen
T1 sequence (P23458 875-1153 limits assumed): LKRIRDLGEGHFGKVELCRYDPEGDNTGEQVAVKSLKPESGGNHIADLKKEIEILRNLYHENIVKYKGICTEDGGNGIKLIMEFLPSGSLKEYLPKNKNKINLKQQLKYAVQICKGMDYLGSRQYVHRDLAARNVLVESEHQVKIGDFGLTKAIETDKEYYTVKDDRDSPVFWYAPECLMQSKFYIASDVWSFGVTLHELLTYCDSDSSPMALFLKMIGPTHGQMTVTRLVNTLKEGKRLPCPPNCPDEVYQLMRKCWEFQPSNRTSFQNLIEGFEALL
Procedure, shortened: (§1)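 Read-out is FRET fluorescence between coumarin and fluorescein on a Tyr6 peptide, lost when the development protease cleaves unphosphorylated substrate. Kinase reaction used recombinant catalytic domain with ATP, 1 h at room temperature, 1% DMSO.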

[2] = system: JAK1/3 signaling to STAT5 in primary T cells; assay: IL2 stimulation of JAK1/3 signaling to STAT5 in primary T cells (pSTAT5 Y694, FACS); type: cell-based; conditions: T-cell; for inhibition at 0.2 µM: 0.2 uM compound, read-out: IL-2/STAT5 Percent Inhibition at 0.2 uM; for inhibition at 1 µM: 1.0 μM compound, read-out: IL-2/STAT5 Percent Inhibition at 1.0 μM
Description: IL2 Stimulation of JAK1/3 Signaling to STAT5 in Primary T Cells:
The effect of JAK inhibitors on cytokine signaling pathways utilizing JAK3 was determined using an IL2 stimulation assay. IL2 engages a receptor complex that contains the IL2 receptor alpha and beta subunits, and the common gamma chain, to initiate activation of JAK1 and JAK3 leading to phosphorylation of STAT5 at tyrosine position 694. Lymphocytes are isolated from heparinized whole blood over a ficoll gradient, then resuspended in tissue culture media containing 10% fetal calf serum at 10×10̂6 cells/ml. 100 μl aliquots are pre-treated for 1 hour with various concentrations of compound, and then stimulated for 12 minutes with 100 U/ml IL2. The signaling reaction is terminated by fixing in 2% paraformaldehyde for 10 minutes at room temperature. Fixed cells are then washed and permeablized by suspension in 50% methanol (in PBS) at −80° C. Following overnight incubation at 4° C., cells are washed and resuspended in PBS containing 0.5% bovine serum albumin containing CD3-APC and pSTAT5 Y694-PE conjugated antibodies. After 1 hour incubation, cells are washed and the extent of STAT5 phosphorlyation in T cells is measured by FACS analysis.

JAK2 = biological target: T2, JAK2 (Homo sapiens, UniProt O60674); assay: Z'-LYTE kinase assay JAK2; type: biochemical
T2 construct: 5 μl of catalytic domain recombinant Kinase enzyme+Tyr peptide substrate (Invitrogen, CA); purchased Invitrogen
T2 sequence (O60674 849-1124 limits assumed): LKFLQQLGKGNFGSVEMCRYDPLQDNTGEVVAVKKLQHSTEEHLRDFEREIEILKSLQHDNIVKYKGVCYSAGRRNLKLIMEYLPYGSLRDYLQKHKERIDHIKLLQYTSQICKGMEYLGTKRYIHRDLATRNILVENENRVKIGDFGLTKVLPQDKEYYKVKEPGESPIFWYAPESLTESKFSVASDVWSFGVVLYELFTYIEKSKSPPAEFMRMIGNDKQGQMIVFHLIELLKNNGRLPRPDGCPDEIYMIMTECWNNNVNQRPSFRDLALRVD
Procedure, shortened: as §1

TYK2 = biological target: T3, TYK2 (Homo sapiens, UniProt P29597); assay: Z'-LYTE kinase assay TYK2; type: biochemical
T3 construct: 5 μl of catalytic domain recombinant Kinase enzyme+Tyr peptide substrate (Invitrogen, CA); purchased Invitrogen
T3 sequence (P29597 897-1176 limits assumed): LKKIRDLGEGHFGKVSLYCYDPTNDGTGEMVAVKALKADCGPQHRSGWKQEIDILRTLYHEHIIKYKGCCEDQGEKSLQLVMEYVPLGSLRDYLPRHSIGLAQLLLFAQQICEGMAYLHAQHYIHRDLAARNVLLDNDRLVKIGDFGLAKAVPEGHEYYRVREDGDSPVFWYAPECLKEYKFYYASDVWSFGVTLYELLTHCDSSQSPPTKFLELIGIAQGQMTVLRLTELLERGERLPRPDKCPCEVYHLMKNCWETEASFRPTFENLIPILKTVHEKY
Procedure, shortened: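 Recombinant catalytic-domain TYK2 with Tyr6 peptide in Z′-LYTE FRET format, 1% DMSO final, kinase reaction 1 h at room temperature, then protease development 1 h. Fluorescence read at 445/520 nm (excitation 400 nm), percent phosphorylation vs no-inhibitor control, IC50 from 4-parameter logistic fit.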

JAK3 = biological target: T4, JAK3 (Homo sapiens, UniProt P52333); assay: Z'-LYTE kinase assay JAK3; type: biochemical
T4 construct: 5 μl of catalytic domain recombinant Kinase enzyme+Tyr peptide substrate (Invitrogen, CA); purchased Invitrogen
T4 sequence (P52333 822-1111 limits assumed): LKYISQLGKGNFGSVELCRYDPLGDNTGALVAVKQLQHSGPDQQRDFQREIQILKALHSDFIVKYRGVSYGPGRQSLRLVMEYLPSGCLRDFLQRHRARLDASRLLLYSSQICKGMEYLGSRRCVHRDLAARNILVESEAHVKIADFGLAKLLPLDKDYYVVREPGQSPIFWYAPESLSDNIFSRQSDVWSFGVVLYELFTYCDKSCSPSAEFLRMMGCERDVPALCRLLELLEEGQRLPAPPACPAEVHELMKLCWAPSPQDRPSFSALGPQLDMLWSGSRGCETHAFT
Procedure, shortened: as §1

IC50 (JAK1) [nM]	IC50 (JAK2) [nM]	IC50 (TYK2) [nM]	IC50 (JAK3) [nM]	SMILES	inhibition at 0.2 µM [1] [%]	inhibition at 1 µM [1] [%]	inhibition at 0.2 µM [2] [%]	inhibition at 1 µM [2] [%]
100 to 1000	100 to 1000	> 1000	1 to 10	CC(=O)N1CCN(c2ccc(Nc3cc(N[C@H](C)c4ccccc4)c(C(N)=O)cn3)cc2)CC1 [Example 7, (R)-6-(4-(4-acetylpiperazin-1-yl)phenylamino)-4-(1-phenylethylamino)nicotinamide]	10	40	29	74
100 to 1000	10 to 100	100 to 1000	1 to 10	Cc1cc(Nc2cc(NCc3cccc(F)c3)c(C(N)=O)cn2)ccc1N1CCCC1=O [Example 61, 4-(3-fluorobenzylamino)-6-(3-methyl-4-(2-oxopyrrolidin-1-yl)phenylamino)nicotinamide]	40	60	39	67
100 to 1000	10 to 100	100 to 1000	1 to 10	NC(=O)c1cnc(Nc2ccc(N3CCOCC3)cc2)cc1NCc1cccc(F)c1 [Example 67, 4-(3-fluorobenzylamino)-6-(4-morpholinophenylamino)nicotinamide]	48	69	61	89
100 to 1000	10 to 100	100 to 1000	1 to 10	NC(=O)c1cnc(Nc2ccc(C3CCN(C(=O)C4CCOCC4)CC3)cc2)cc1NCc1ccccc1F [Example 119, 4-(2-fluorobenzylamino)-6-(4-(1-(tetrahydro-2H-pyran-4-carbonyl)piperidin-4-yl)phenylamino)nicotinamide]	17	47	54	83
100 to 1000	100 to 1000	100 to 1000	1 to 10	CS(=O)(=O)Nc1cccc(Nc2cc(NCc3ccccc3)c(C(N)=O)cn2)c1 [Example 388]			18	55
100 to 1000	10 to 100	100 to 1000	1 to 10	CCC(=O)N1CCN(c2ccc(Nc3cc(NCc4cccc(F)c4F)c(C(N)=O)cn3)cc2)CC1 [Example 435, 4-(2,3-difluorobenzylamino)-6-(4-(4-propionylpiperazin-1-yl)phenylamino)nicotinamide]			63	102
100 to 1000	10 to 100	100 to 1000	< 1	Cc1cc(Nc2cc(NCc3cccc4ccsc34)c(C(N)=O)cn2)ccc1C(=O)N1CCC1 [Example 457, 6-(4-(azetidine-1-carbonyl)-3-methylphenylamino)-4-(benzo[b]thiophen-7-ylmethylamino)nicotinamide]			56	100
1 to 10	< 1	1 to 10	< 1	Cc1cc(Nc2cc(NCc3cccc4[nH]ccc34)c(C(N)=O)cn2)ccc1C(=O)N1CCCC1 [Example 461, 4-((1H-indol-4-yl)methylamino)-6-(3-methyl-4-(pyrrolidine-1-carbonyl)phenylamino)nicotinamide]			94	101

More lines, now with the values behind:

SMILES	IC50 (JAK1) [nM]	IC50 (JAK2) [nM]	IC50 (TYK2) [nM]	IC50 (JAK3) [nM]	inhibition at 0.2 µM [1] [%]	inhibition at 1 µM [1] [%]	inhibition at 0.2 µM [2] [%]	inhibition at 1 µM [2] [%]
NC(=O)c1cnc(Nc2ccc(C(=O)N3CCCC3)cc2)cc1NCc1ccccc1 [Example 39, 4-(benzylamino)-6-(4-(pyrrolidine-1-carbonyl)phenylamino)nicotinamide]	100 to 1000	100 to 1000	100 to 1000	1 to 10	47	52	37	65
NC(=O)c1cnc(Nc2cccc(OCCN3CCCC3)c2)cc1N[C@H](CO)c1ccccc1 [Example 59, (S)-4-(2-hydroxy-1-phenylethylamino)-6-(3-(2-(pyrrolidin-1-yl)ethoxy)phenylamino)nicotinamide]	> 1000	100 to 1000	> 1000	1 to 10	11	27	12	50
CCC(=O)N1CCC(c2ccc(Nc3cc(NCc4ccccc4F)c(C(N)=O)cn3)cc2)CC1 [Example 79]	100 to 1000	100 to 1000	100 to 1000	10 to 100	20	43	53	73
NC(=O)c1cnc(Nc2ccc(C(=O)N3CCC3)cc2)cc1NCc1c(F)cccc1F [Example 105, 6-(4-(azetidine-1-carbonyl)phenylamino)-4-(2,6-difluorobenzylamino)nicotinamide]	10 to 100	10 to 100	10 to 100	1 to 10	53	88	72	99
CN1CCC(c2ccc(Nc3cc(NCc4ccccc4F)c(C(N)=O)cn3)cc2)CC1 [Example 107, 4-(2-fluorobenzylamino)-6-(4-(1-methylpiperidin-4-yl)phenylamino)nicotinamide]	100 to 1000	100 to 1000	100 to 1000	1 to 10	43	73	58	82
NC(=O)c1cnc(Nc2cccc(C(=O)N3CCCCC3)c2)cc1NCc1ccccc1 [Example 249, 4-(benzylamino)-6-(3-(piperidine-1-carbonyl)phenylamino)nicotinamide]	100 to 1000	100 to 1000	> 1000	10 to 100	23	32	12	29
NC(=O)c1cnc(Nc2ccc(N3CCOCC3)cc2)cc1NCc1ccccc1 [Example 250, 4-(benzylamino)-6-(4-morpholinophenylamino)nicotinamide]	> 1000	100 to 1000	> 1000	1 to 10	11	26	18	50
NC(=O)c1cnc(Nc2ccc(OC(F)(F)F)cc2)cc1NCc1cccc2[nH]ccc12 [Example 322, 4-((1H-indol-4-yl)methylamino)-6-(4-(trifluoromethoxy)phenylamino)nicotinamide]	> 1000	> 1000	> 1000	100 to 1000			27	70
CS(=O)(=O)Nc1ccc(Nc2cc(NCc3ccccc3)c(C(N)=O)cn2)cc1 [Example 389]	100 to 1000	100 to 1000	100 to 1000	1 to 10			56	88
Cc1cc(Nc2cc(NCc3cccc4ccsc34)c(C(N)=O)cn2)ccc1C(=O)N1CCCC1 [Example 458, 4-(benzo[b]thiophen-7-ylmethylamino)-6-(3-methyl-4-(pyrrolidine-1-carbonyl)phenylamino)nicotinamide]	100 to 1000	10 to 100	10 to 100	1 to 10			49	104
Cc1cc(Nc2cc(NCc3cccc4cc[nH]c34)c(C(N)=O)cn2)ccc1C(=O)N1CCCC1 [Example 464, 4-((1H-indol-7-yl)methylamino)-6-(3-methyl-4-(pyrrolidine-1-carbonyl)phenylamino)nicotinamide]	> 1000	10 to 100	> 1000	1 to 10			22	55
